Consider twelve compounds from article PMC7531004, “Discovery of gramicidin A analogues with altered activities by multidimensional screening of a one-bead-one-compound library” (Nature Communications, 2020).

Where a SMILES comes first, the peptide text is derived from it. [ ]: non-standard residue; d: D form. The star is where a group is joined. NHCH2CH2OH = OCCN*; For = O=C*

Data set [1] has as its system Streptococcus pyogenes SSI-9. The data set can be described thus: Antibacterial activity assay of bead-derived peptides (three concentrations). The conditions noted are these: S. pyogenes, bead-derived peptide solution, three concentrations. The data set is classed as cell-based. Details: key: +++: inhibition by the 640-fold diluted peptide solution; ++: inhibition by the 160-fold diluted solution; +: inhibition by the 40-fold diluted solution; -: no inhibition. Summed up:
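Library peptide stock applied undiluted, 4-fold and 16-fold diluted in DMSO to S. pyogenes SSI-9 (2 × 10^5 CFU) in cation-adjusted Mueller Hinton broth with 5% laked horse blood. After 18 h at 37 °C, growth judged by visible cell precipitation.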

The conditions of data set [2]: cell viability/%. Summed up: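 P388 cells at 1 × 10^4 cells/mL (final) were exposed to library peptides (stocks diluted 250-fold in RPMI1640/10% FBS) for 92 h at 37 °C, 5% CO2. Viable cells were counted by WST-1/1-methoxy PMS (4 h), absorbance 415 nm, and expressed as cell viability (%).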
The nature of data set [3]: H+/Na+ transport assay of bead-derived peptides (one-point).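 Also: relative to parent gramicidin A activity set to 1.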 The data set is classed as biochemical. The arrangement: key: relative activity; mean of two control wells = 1.00. Particulars: bead-derived peptide solution, EYPC/EYPG LUVs. Summed up:
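One-point screen: peptide + pyranine-loaded LUVs, 30 min RT with vortexing, 96-well. Read-out is fluorescence intensity scaled as 100 × (Ix – I0)/(Imax – I0). Imax from Triton X-100, I0 from untreated vesicles, and the mean of the two control wells is set to 1.00.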

As usually defined, the viability is a read-out of living cells in per cent, often relative to untreated cells. With `CC(C)C[C@@H](NC(=O)[C@H](C)NC(=O)CNC(=O)[C@@H](NC=O)C(C)C)C(=O)N[C@@H](C)C(=O)N[C@@H](C(=O)N[C@H](C(=O)N[C@@H](C(=O)N[C@@H](Cc1c[nH]c2ccccc12)C(=O)N[C@@H](C(=O)N[C@@H](Cc1c[nH]c2ccccc12)C(=O)N[C@H](CC(C)C)C(=O)N[C@@H](Cc1c[nH]c2ccccc12)C(=O)N[C@@H](C(=O)N[C@@H](Cc1c[nH]c2ccccc12)C(=O)NCCO)C(C)C)C(C)C)[C@H](C)O)C(C)C)C(C)C` [compound 2154] (For-VGA[dL]A[dV]V[dT]W[dV]W[dL]W[dV]W-NHCH2CH2OH), in data set [1], the antibacterial activity entry was “-”. The same compound displayed a viability in data set [2] of 100%. Further, the “H+/Na+ transport activity normalized against the value of 1 (1.00)” value (“H+/Na+ transport activity normalized” for short) in data set [3] turned out to be 1.09.

Regarding `CNC(=O)C[C@@H](NC(=O)[C@@H](NC(=O)[C@H](NC(=O)[C@H](C)NC(=O)[C@@H](CC(C)C)NC(=O)[C@H](C)NC(=O)CNC(=O)[C@@H](NC=O)C(C)C)C(C)C)C(C)C)C(=O)N[C@@H](Cc1c[nH]c2ccccc12)C(=O)N[C@H](CC(C)C)C(=O)N[C@@H](Cc1c[nH]c2ccccc12)C(=O)N[C@@H](C(=O)N[C@@H](Cc1c[nH]c2ccccc12)C(=O)N[C@@H](C(=O)N[C@@H](Cc1c[nH]c2ccccc12)C(=O)NCCO)C(C)C)C(C)C` [compound 2195] (For-VGA[dL]A[dV]V[dD](NHMe)W[dL]W[dV]W[dV]W-NHCH2CH2OH), the antibacterial activity entry in data set [1] is “-”. In addition, the viability in data set [2] was 100%. In addition, the “H+/Na+ transport activity normalized” value in data set [3] amounted to 1.34.

In the case of `CC(C)C[C@@H](NC(=O)[C@H](C)NC(=O)CNC(=O)[C@@H](NC=O)C(C)C)C(=O)N[C@@H](C)C(=O)N[C@@H](C(=O)N[C@H](C(=O)N[C@@H](C(=O)N[C@@H](Cc1c[nH]c2ccccc12)C(=O)N[C@@H](C(=O)N[C@@H](Cc1c[nH]c2ccccc12)C(=O)N[C@@H](C(=O)N[C@@H](Cc1c[nH]c2ccccc12)C(=O)N[C@H](CC(C)C)C(=O)N[C@@H](Cc1c[nH]c2ccccc12)C(=O)NCCO)C(C)C)[C@H](C)O)C(C)C)C(C)C)C(C)C` [compound 2207] (For-VGA[dL]A[dV]V[dV]W[dT]W[dV]W[dL]W-NHCH2CH2OH), in data set [1], the antibacterial activity result is given as “-”. This compound yielded a viability in data set [2] of 100%. Further, the “H+/Na+ transport activity normalized” value in data set [3] was 1.18.

`CC(C)C[C@@H](NC(=O)[C@H](C)NC(=O)CNC(=O)[C@@H](NC=O)C(C)C)C(=O)N[C@@H](C)C(=O)N[C@@H](C(=O)N[C@H](C(=O)N[C@H](CC(C)C)C(=O)N[C@@H](Cc1c[nH]c2ccccc12)C(=O)N[C@@H](C(=O)N[C@@H](Cc1c[nH]c2ccccc12)C(=O)N[C@@H](C(=O)N[C@@H](Cc1c[nH]c2ccccc12)C(=O)N[C@H](CC(C)C)C(=O)N[C@@H](Cc1c[nH]c2ccccc12)C(=O)NCCO)C(C)C)[C@H](C)O)C(C)C)C(C)C` [compound 2236] (For-VGA[dL]A[dV]V[dL]W[dT]W[dV]W[dL]W-NHCH2CH2OH): the antibacterial activity entry in data set [1] is on record as “+”. The compound further registered a viability in data set [2] of 100%. In addition, the “H+/Na+ transport activity normalized” value in data set [3] is recorded as 1.03.

In the case of `CC(C)C[C@@H](NC(=O)[C@H](C)NC(=O)CNC(=O)[C@@H](NC=O)C(C)C)C(=O)N[C@@H](C)C(=O)N[C@@H](C(=O)N[C@H](C(=O)N[C@@H](C(=O)N[C@@H](Cc1c[nH]c2ccccc12)C(=O)N[C@@H](C(=O)N[C@@H](Cc1c[nH]c2ccccc12)C(=O)N[C@H](CC(C)C)C(=O)N[C@@H](Cc1c[nH]c2ccccc12)C(=O)N[C@H](CC(C)C)C(=O)N[C@@H](Cc1c[nH]c2ccccc12)C(=O)NCCO)C(C)C)[C@H](C)O)C(C)C)C(C)C` [compound 2290] (For-VGA[dL]A[dV]V[dT]W[dV]W[dL]W[dL]W-NHCH2CH2OH), in data set [1], the antibacterial activity entry is recorded as “-”. Further, the viability in data set [2] was 100%. Moreover, the “H+/Na+ transport activity normalized” value in data set [3] was 1.14.

`CC(C)C[C@@H](NC(=O)[C@H](C)NC(=O)CNC(=O)[C@@H](NC=O)C(C)C)C(=O)N[C@@H](C)C(=O)N[C@H](CC(C)C)C(=O)N[C@H](C(=O)N[C@H](CC(C)C)C(=O)N[C@@H](Cc1c[nH]c2ccccc12)C(=O)N[C@H](CC(C)C)C(=O)N[C@@H](Cc1c[nH]c2ccccc12)C(=O)N[C@@H](C(=O)N[C@@H](Cc1c[nH]c2ccccc12)C(=O)N[C@@H](C(=O)N[C@@H](Cc1c[nH]c2ccccc12)C(=O)NCCO)C(C)C)[C@H](C)O)C(C)C` [compound 2346] (For-VGA[dL]A[dL]V[dL]W[dL]W[dT]W[dV]W-NHCH2CH2OH): the antibacterial activity entry in data set [1] was “+”. For the same compound, in data set [2], the viability turned out to be 100%. Further, the “H+/Na+ transport activity normalized” value in data set [3] is recorded as 1.03.

In the case of `CNC(=O)C[C@@H](NC(=O)[C@H](Cc1c[nH]c2ccccc12)NC(=O)[C@H](NC(=O)[C@H](Cc1c[nH]c2ccccc12)NC(=O)[C@@H](CC(C)C)NC(=O)[C@H](Cc1c[nH]c2ccccc12)NC(=O)[C@H](NC(=O)[C@@H](NC(=O)[C@@H](CC(C)C)NC(=O)[C@H](C)NC(=O)[C@H](NC(=O)[C@H](C)NC(=O)CNC(=O)[C@@H](NC=O)C(C)C)C(C)C)C(C)C)C(C)C)C(C)C)C(=O)N[C@@H](Cc1c[nH]c2ccccc12)C(=O)NCCO` [compound 2425] (For-VGA[dV]A[dL]V[dV]W[dL]W[dV]W[dD](NHMe)W-NHCH2CH2OH), the antibacterial activity entry in data set [1] was “-”. In data set [2], this compound showed a viability of 100%. For the same compound, the “H+/Na+ transport activity normalized” value in data set [3] was 1.07.

As to `CNC(=O)C[C@@H](NC(=O)[C@H](Cc1c[nH]c2ccccc12)NC(=O)[C@@H](CC(C)C)NC(=O)[C@@H](NC(=O)[C@@H](CC(C)C)NC(=O)[C@H](C)NC(=O)[C@@H](CC(C)C)NC(=O)[C@H](C)NC(=O)CNC(=O)[C@@H](NC=O)C(C)C)C(C)C)C(=O)N[C@@H](Cc1c[nH]c2ccccc12)C(=O)N[C@@H](C(=O)N[C@@H](Cc1c[nH]c2ccccc12)C(=O)N[C@H](CC(C)C)C(=O)N[C@@H](Cc1c[nH]c2ccccc12)C(=O)NCCO)C(C)C` [compound 2432] (For-VGA[dL]A[dL]V[dL]W[dD](NHMe)W[dV]W[dL]W-NHCH2CH2OH), the antibacterial activity entry in data set [1] is on record as “-”. This compound came in with a viability in data set [2] of 100%. In addition, the “H+/Na+ transport activity normalized” value in data set [3] worked out at 1.06.

As for `CC(C)C[C@@H](NC(=O)[C@H](C)NC(=O)CNC(=O)[C@@H](NC=O)C(C)C)C(=O)N[C@@H](C)C(=O)N[C@@H](C(=O)N[C@H](C(=O)N[C@@H](C(=O)N[C@@H](Cc1c[nH]c2ccccc12)C(=O)N[C@@H](C(=O)N[C@@H](Cc1c[nH]c2ccccc12)C(=O)N[C@@H](C(=O)N[C@@H](Cc1c[nH]c2ccccc12)C(=O)N[C@H](CC(C)C)C(=O)N[C@@H](Cc1c[nH]c2ccccc12)C(=O)NCCO)C(C)C)C(C)C)C(C)C)C(C)C)[C@H](C)O` [compound 2475] (For-VGA[dL]A[dT]V[dV]W[dV]W[dV]W[dL]W-NHCH2CH2OH), the antibacterial activity result in data set [1] is recorded as “-”. In data set [2], this compound gave a viability of 100%. Moreover, the “H+/Na+ transport activity normalized” value in data set [3] came to 1.13.

In the case of `CC(C)C[C@@H](NC(=O)[C@H](Cc1c[nH]c2ccccc12)NC(=O)[C@@H](CC(C)C)NC(=O)[C@@H](NC(=O)[C@H](NC(=O)[C@H](C)NC(=O)[C@H](NC(=O)[C@H](C)NC(=O)CNC(=O)[C@@H](NC=O)C(C)C)C(C)C)[C@H](C)O)C(C)C)C(=O)N[C@@H](Cc1c[nH]c2ccccc12)C(=O)N[C@H](CC(C)C)C(=O)N[C@@H](Cc1c[nH]c2ccccc12)C(=O)N[C@@H](C(=O)N[C@@H](Cc1c[nH]c2ccccc12)C(=O)NCCO)C(C)C` [compound 2495] (For-VGA[dV]A[dT]V[dL]W[dL]W[dL]W[dV]W-NHCH2CH2OH), the antibacterial activity result in data set [1] is on record as “-”. The viability in data set [2] was determined as 100%. Besides, in data set [3], the “H+/Na+ transport activity normalized” value came to 1.22.

Regarding `CC(C)C[C@@H](NC(=O)[C@H](C)NC(=O)CNC(=O)[C@@H](NC=O)C(C)C)C(=O)N[C@@H](C)C(=O)N[C@H](CC(C)C)C(=O)N[C@H](C(=O)N[C@@H](C(=O)N[C@@H](Cc1c[nH]c2ccccc12)C(=O)N[C@H](CC(C)C)C(=O)N[C@@H](Cc1c[nH]c2ccccc12)C(=O)N[C@@H](C(=O)N[C@@H](Cc1c[nH]c2ccccc12)C(=O)N[C@@H](C(=O)N[C@@H](Cc1c[nH]c2ccccc12)C(=O)NCCO)C(C)C)C(C)C)C(C)C)C(C)C` [compound 2557] (For-VGA[dL]A[dL]V[dV]W[dL]W[dV]W[dV]W-NHCH2CH2OH), the antibacterial activity entry in data set [1] is “++”. In addition, in data set [2], the viability came out at 31%. The “H+/Na+ transport activity normalized” value in data set [3] turned out to be 1.21.

With `CC(C)C[C@@H](NC(=O)[C@H](C)NC(=O)[C@H](NC(=O)[C@H](C)NC(=O)CNC(=O)[C@@H](NC=O)C(C)C)C(C)C)C(=O)N[C@H](C(=O)N[C@H](CC(C)C)C(=O)N[C@@H](Cc1c[nH]c2ccccc12)C(=O)N[C@H](CC(C)C)C(=O)N[C@@H](Cc1c[nH]c2ccccc12)C(=O)N[C@@H](C(=O)N[C@@H](Cc1c[nH]c2ccccc12)C(=O)N[C@H](CC(C)C)C(=O)N[C@@H](Cc1c[nH]c2ccccc12)C(=O)NCCO)[C@H](C)O)C(C)C` [compound 2682] (For-VGA[dV]A[dL]V[dL]W[dL]W[dT]W[dL]W-NHCH2CH2OH), the antibacterial activity result in data set [1] is “+”. In data set [2], this compound had a viability of 100%. The “H+/Na+ transport activity normalized” value in data set [3] is given as 1.06.
